Toxic doses and inconclusive results are not listed. Cut-off read from the data, not from the text of the source: active = T/C of 150% or more; inactive = T/C below 125%.
System: L1210 leukemia ip in BDF1 mice, survival T/C
Experiment: NCI In Vivo Anticancer Drug Screen. Data for tumor model L1210 Leukemia (intraperitoneal) in B6D2F1 (BDF1) mice
Conditions: endpoint: mean survival time, higher = longer survival
Method in brief: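 Transplantable tumor model; survival measured in treated vs vehicle control mice. Value = treated/control.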

[1] = dose: 100.0 mg/kg/injection, schedule: Q04DX002 (ip), vehicle: saline with Tween-80
[2] = dose: 200.0 mg/kg/injection, schedule: Q01DX001 (ip), vehicle: saline
[3] = dose: 100.0 mg/kg/injection, schedule: Q01DX009 (ip), vehicle: Klucel (hydroxypropylcellulose) (HPC)
[4] = dose: 100.0 mg/kg/injection, schedule: Q04DX003 (ip), vehicle: Klucel (hydroxypropylcellulose) (HPC)
[5] = dose: 200.0 mg/kg/injection, schedule: Q01DX009 (ip), vehicle: Klucel (hydroxypropylcellulose) (HPC)
[6] = dose: 200.0 mg/kg/injection, schedule: Q04DX003 (ip), vehicle: Klucel (hydroxypropylcellulose) (HPC)
[7] = dose: 400.0 mg/kg/injection, schedule: Q01DX009 (ip), vehicle: Klucel (hydroxypropylcellulose) (HPC)
[8] = dose: 400.0 mg/kg/injection, schedule: Q04DX003 (ip), vehicle: Klucel (hydroxypropylcellulose) (HPC)

Measured: T/C

C=CCNC(=S)Nc1ccc(OC(=O)Nc2ccc(Cl)c(Cl)c2)cc1
inactive: [1] 102 % of control | dose: 200.0 mg/kg/injection, schedule: Q04DX002 (ip), vehicle: saline with Tween-80 97 % of control | dose: 400.0 mg/kg/injection, schedule: Q04DX002 (ip), vehicle: saline with Tween-80 105 % of control

CCCC1C2=C(C(=O)OC2=O)C2C(CC)CC3=C(C(=O)OC3=O)C12 (stereo not drawn)
inactive: dose: 12.5 mg/kg/injection, schedule: Q01DX001 (ip), vehicle: Klucel (hydroxypropylcellulose) (HPC) 90 % of control | dose: 25.0 mg/kg/injection, schedule: Q01DX001 (ip), vehicle: Klucel (hydroxypropylcellulose) (HPC) 94 % of control | dose: 50.0 mg/kg/injection, schedule: Q01DX001 (ip), vehicle: Klucel (hydroxypropylcellulose) (HPC) 94 % of control | dose: 56.25 mg/kg/injection, schedule: Q04DX003 (ip), vehicle: Klucel (hydroxypropylcellulose) (HPC) 97 % of control | dose: 100.0 mg/kg/injection, schedule: Q01DX001 (ip), vehicle: Klucel (hydroxypropylcellulose) (HPC) 95 % of control | dose: 112.5 mg/kg/injection, schedule: Q04DX003 (ip), vehicle: Klucel (hydroxypropylcellulose) (HPC) 95 % of control | dose: 150.0 mg/kg/injection, schedule: Q01DX001 (ip), vehicle: Klucel (hydroxypropylcellulose) (HPC) 89 % of control | dose: 225.0 mg/kg/injection, schedule: Q01DX001 (ip), vehicle: Klucel (hydroxypropylcellulose) (HPC) 97 % of control | dose: 225.0 mg/kg/injection, schedule: Q04DX003 (ip), vehicle: Klucel (hydroxypropylcellulose) (HPC) 94 % of control

CC(=O)N1CCC(Cc2ccccc2)CC1
inactive: dose: 75.0 mg/kg/injection, schedule: Q01DX009 (ip), vehicle: saline with Tween-80 104 % of control

NC(=S)NO
inactive: dose: 50.0 mg/kg/injection, schedule: Q04DX003 (ip), vehicle: other 101 % of control | dose: 100.0 mg/kg/injection, schedule: Q04DX003 (ip), vehicle: other 107 % of control | dose: 200.0 mg/kg/injection, schedule: Q04DX003 (ip), vehicle: other 104 % of control | dose: 400.0 mg/kg/injection, schedule: Q04DX003 (ip), vehicle: other 96 % of control

O=c1[nH]c(=O)n(C2CCCO2)cc1I (stereo not drawn)
inactive: dose: 100.0 mg/kg/injection, schedule: Q01DX001 (ip), vehicle: carboxymethylcellulose (CMC) 95 % of control | dose: 200.0 mg/kg/injection, schedule: Q01DX001 (ip), vehicle: carboxymethylcellulose (CMC) 98 % of control | dose: 400.0 mg/kg/injection, schedule: Q01DX001 (ip), vehicle: carboxymethylcellulose (CMC) 93 % of control

NCCc1cnc[nH]1
inactive: dose: 50.0 mg/kg/injection, schedule: Q01DX009 (ip), vehicle: saline 89 % of control | dose: 100.0 mg/kg/injection, schedule: Q01DX009 (ip), vehicle: saline 106 % of control | dose: 200.0 mg/kg/injection, schedule: Q01DX009 (ip), vehicle: saline 89 % of control

Nc1nc2nc(-c3ccccc3)nc(N)c2nc1-c1ccc(N(CCO)CCO)cc1
inactive: dose: 45.0 mg/kg/injection, schedule: Q01DX001 (ip), vehicle: saline 102 % of control | dose: 67.0 mg/kg/injection, schedule: Q01DX001 (ip), vehicle: saline 108 % of control | dose: 150.0 mg/kg/injection, schedule: Q01DX001 (ip), vehicle: saline 91 % of control | [2] 95 % of control | dose: 400.0 mg/kg/injection, schedule: Q01DX001 (ip), vehicle: saline 95 % of control

O=S(=O)(CCN1CCCCC1)c1ccc(F)cc1
inactive: dose: 100.0 mg/kg/injection, schedule: Q01DX001 (ip), vehicle: saline 100 % of control | [2] 100 % of control

CN(C)CCC(C=O)(CCN(C)C)c1cccc2ccccc12
inactive: dose: 25.0 mg/kg/injection, schedule: Q04DX002 (ip), vehicle: saline with Tween-80 116 % of control | dose: 50.0 mg/kg/injection, schedule: Q04DX002 (ip), vehicle: saline with Tween-80 94 % of control | [1] 94 % of control

CC(C)=C1C2C=CC1C(CO)C2CO (stereo not drawn)
inactive: [3] 106 % of control | [4] 105 % of control | [5] 91 % of control | [6] 114 % of control | [7] 102 % of control | [8] 102 % of control

CC(=O)OC1C(=O)C(C)(C)CSCC1(C)C (stereo not drawn)
inactive: [3] 103 % of control | [5] 103 % of control | [7] 105 % of control

BrC(c1ccccc1)C(Br)c1ccccc1 (stereo not drawn)
inactive: [3] 86 % of control | [4] 92 % of control | [5] 96 % of control | [6] 94 % of control | [7] 91 % of control | [8] 100 % of control
